The values that follow come from patent US20220002400A1 (priority 2019, published 2022).

SMILES strings stand for the structures. Several values for one entry are separate records, joined by “and”; a condition that tells them apart may be missing. Equal values may be shown once.

Format in all cases: cell-based
One experiment relates to A549 cells. Particulars: 100 nM for 1 hour at 37° C.
In experiment [1] the test system is Influenza A PR8 virus.
Experiment [2] deals with Influenza A PR8 virus. As to conditions: 10 nM.

With `CO/C1=C\C(C)=C\[C@@H](C)[C@@H](O)[C@@H](C)C/C(C)=C/C=C/[C@H](OC)[C@@H]([C@@H](C)[C@@H](O)[C@H](C)[C@@]2(O)C[C@@H](O)[C@H](C)[C@@H](C(C)C)O2)OC1=O` [BafA, Bafilomycin A], the lysotracker staining result with A549 cells is reported as “a decrease in lysotracker staining was observed”. The “protection against IAV infection (percentage of HA+ cells)” value with Influenza A PR8 virus [1] was “further protected the KO cells against IAV infection”.

Consider `COC(=O)OCOc1c2n(ccc1=O)N([C@@H]1c3ccccc3SCc3c1ccc(F)c3F)[C@@H]1COCCN1C2=O` [baloxavir marboxil], for which the “effect of baloxavir marboxil treatment combined with CRISPR deletion on Influenza A virus infection” value in the experiment on Influenza A PR8 virus [2] (1 nM, 5 nM) was “synergistic effect with baloxavir marboxil treatment but to a lesser extent compared to CMTR1”. For the same molecule, the “reduction of the rate of Influenza A virus infection compared to untreated cells, according to Hemagglutinin staining” value with Influenza A PR8 virus [2] was 58% and 91%.
